According to patent US10822535B2, “Modified acid compositions as alternatives to conventional acids in the oil and gas industry” (Fluid Energy Group Ltd., priority 2017, dated 2020):
≈ marks a conversion by molar mass, not a printed value. Read-outs that look alike come from different tables or passages of the source.

Columns and labels:
[1] = Aerobic degradability in seawater (OECD 306)
Method: This study was commissioned to determine the aerobic degradability of the composition of monoethanolamine in seawater. […] The ThODNO3 value was determined from the chemical formula of the compound tested.
The OECD 306 guideline states the test material can be considered to be inhibitory to bacteria (at the concentration used) if the BOD of the mixture of reference and test materials is less than the sum of the BOD of the separate solutions of the two substances.

[2] = Acute lethal toxicity to marine copepods (ISO 14669); settings: Acartia tonsa (marine copepod), in vivo, other: aquatic phase (waterborne exposure), Water Accommodated Fraction, nominal concentrations
Method: A series of test were carried out to assess the environmental impact of monoethanoamine. A stock solution of 98-99% pure monoethanolamine was sent to be tested. The solution was diluted where necessary.
Determination of Acute Lethal Toxicity to Marine Copepods (Copepoda; Crustacea) (ISO 14669 (1999) Water Quality)
This study was commissioned to determine the aquatic phase toxicity of monoethanolamine to the marine copepod Acartia tonsa. The A. tonsa toxicity LC50 test was conducted in accordance with the study plan except for the following deviation and interferences but met all other relevant validity criteria. In the definitive test the temperature of the dilution water was below acceptable limits by a maximum of 0.7° C., the pH was below acceptable limits by a maximum of 0.01 units. These deviations were not expected to have an impact on the test as there was no control mortalities.

Skeletonema sp. = experiment: Marine algal growth inhibition test (ISO 10253); type: cell-based; settings: 72 h, WAFs, nominal concentrations, read-out: 72 h EC(r)50
Source text: ISO 10253 (2016) Water Quality—Marine Algal Growth Inhibition Test with Skeletonema Sp. This study was commissioned to determine the aquatic phase toxicity of the composition of monoethanolamine to the marine unicellular algae Skeletonema sp. […] It is the results from this test that has been reported.

Corophium volutator = experiment: Sediment bioassay using an amphipod (OSPARCOM 2006 Part A); type: in vivo; settings: sediment phase, via dried sediment, nominal concentrations
Method: OSPARCOM Guidelines (2006) Part A. A Sediment Bioassay Using an Amphipod Corophium sp
This study was commissioned to determine the sediment phase toxicity of the composition of monoethanolamine to the intertidal amphipod Corophium volutator. […] The result is based on nominal concentrations and was calculated by Linear Interpolation within the CETIS suite of statistical analysis.

Cyprinodon variegatus = experiment: Marine fish 96 h limit test (OSPAR); type: in vivo; settings: 96 h exposure at 199.7 mg/l (Water Accommodated Fraction)
Method: This study was commissioned to determine the aquatic (96 h limit test) toxicity of the composition of monoethanolamine to the marine fish Cyprinodon variegatus.
There were no interferences in this test. Test conditions of exposure were within formal and informal limits of acceptability except for the exception noted below. There were ten fish used in both the test and control tanks, with no control mortality observed.
The test concentration was derived from the test material EC/LC50 value between the most sensitive acute toxicity test species Skeletonema sp. and A. tonsa.

Compound: NCCO [monoethanolamine]
- biodegradation [1]: 71%
- percentage inhibition of bacteria ([1]; in 28 days): 12%
- LC50 at 48 h ([2]; 48 h LC50, definitive test, seawater): 434 µg/mL (≈ 7.1 mM)
- LC50 at 48 h ([2]; 48 h LC50, range-finding test): 550 µg/mL (≈ 9 mM)
- EC50 (Skeletonema sp.; definitive test): 200 µg/mL (≈ 3.27 mM)
- EC50 (Skeletonema sp.; range-finding test): 509 µg/mL (≈ 8.33 mM)
- 10 day LC50 (Corophium volutator): 6,660 mg/kg
- mortality (Cyprinodon variegatus): no mortalities

Compound: O=C([O-])c1ccccc1.[Na+] [sodium benzoate, reference compound]
- degradation of reference material ([1]; first 14 days, seawater): more than 60%
